# Test results reported in ChEMBL document CHEMBL4613236, “Magnoflorine from Coptis chinese has the potential to treat DNCB-induced Atopic dermatits by inhibiting apoptosis of keratinocyte” (Bioorg Med Chem, 2020).
# The source made the active and inactive calls. The rule behind the calls is not given here.
# What was measured:
# [1] = test system: HaCaT; experiment: Inhibition of TNF-alpha/IFN-gamma-induced apoptosis in human HaCaT cells after 24 hrs by Annexin V-FITC/propidium iodide double staining-based flow cytometry; format: functional, cell-based
# [2] = test system: HaCaT; experiment: Cytotoxicity against human HaCaT cells assessed as reduction in cell viability after 24 hrs by MTT assay; format: cell-based
# [3] = test system: Mus musculus; experiment: Protection against DNCB-induced skin inflammation in BALB/c mouse model of atopic dermatitis assessed as reduction in spleen index at 0.1 g/ml administered topically once daily for 16 days measured post last dose; format: functional, organism-based
# [4] = test system: Mus musculus; experiment: Protection against DNCB-induced skin inflammation in BALB/c mouse model of atopic dermatitis assessed as reduction in skin erythema at 0.1 g/ml administered topically once daily for 16 days measured post last dose; format: functional, organism-based
# [5] = test system: HaCaT; experiment: Inhibition of TNFalpha/IFN-gamma-induced apoptosis in human HaCaT cells assessed as change in mitochondrial membrane potential at 500 ug/ml after 24 hrs by DiOC6 probe based flow cytometric analysis (reference value: 15.36 +/- 0.76); format: functional
# [6] = test system: Mus musculus; experiment: Protection against DNCB-induced skin inflammation in BALB/c mouse model of atopic dermatitis assessed as reduction in IgE level at 0.1 g/ml administered topically once daily for 16 days measured post last dose by ELISA; format: functional, organism-based
# [7] = test system: HaCaT; experiment: Induction of apoptosis in human HaCaT cells at 500 to 1500 ug/ml after 24 hrs by Hoechst staining based fluorescence microscopic analysis; format: cell-based
# [8] = test system: Mus musculus; experiment: Protection against DNCB-induced skin inflammation in BALB/c mouse model of atopic dermatitis assessed as reduction in IL4 level at 0.1 g/ml administered topically once daily for 16 days measured post last dose by ELISA; format: functional, organism-based
# [9] = test system: HaCaT; experiment: Inhibition of TNFalpha/IFN-gamma-induced apoptosis in human HaCaT cells assessed as increase in caspase 3 expression at 500 ug/ml after 24 hrs by Western blot analysis; format: functional, cell-based
# [10] = test system: Mus musculus; experiment: Protection against DNCB-induced skin inflammation in BALB/c mouse model of atopic dermatitis assessed as reduction in skin dryness at 0.1 g/ml administered topically once daily for 16 days measured post last dose; format: functional, organism-based
# [11] = test system: Mus musculus; experiment: Protection against DNCB-induced skin inflammation in BALB/c mouse model of atopic dermatitis assessed as reduction in skin erosion at 0.1 g/ml administered topically once daily for 16 days measured post last dose; format: functional, organism-based
# [12] = test system: Mus musculus; experiment: Protection against DNCB-induced skin inflammation in BALB/c mouse model of atopic dermatitis assessed as reduction in dermal edema at 0.1 g/ml administered topically once daily for 16 days measured post last dose; format: functional, organism-based
# [13] = test system: HaCaT; experiment: Inhibition of TNFalpha/IFN-gamma-induced apoptosis in human HaCaT cells assessed as increase in cathepsin B expression at 500 ug/ml after 24 hrs by Western blot analysis; format: functional, cell-based
# [14] = test system: HaCaT; experiment: Inhibition of TNFalpha/IFN-gamma-induced apoptosis in human HaCaT cells assessed as increase in caspase 9 expression at 500 ug/ml after 24 hrs by Western blot analysis; format: functional, cell-based
# [15] = test system: HaCaT; experiment: Inhibition of TNFalpha/IFN-gamma-induced apoptosis in human HaCaT cells assessed as increase in cytochrome C expression at 500 ug/ml after 24 hrs by Western blot analysis; format: functional, cell-based
# [16] = test system: HaCaT; experiment: Inhibition of TNFalpha/IFN-gamma-induced apoptosis in human HaCaT cells assessed as increase in caspase 7 expression at 500 ug/ml after 24 hrs by Western blot analysis; format: functional, cell-based
# [17] = test system: HaCaT; experiment: Inhibition of TNFalpha/IFN-gamma-induced apoptosis in human HaCaT cells assessed as increase in Bid expression at 500 ug/ml after 24 hrs by Western blot analysis; format: functional, cell-based
# [18] = Toxicity in DNCB-induced skin inflammation in BALB/c mouse model of atopic dermatitis assessed as effect on organs at 0.1 g/ml administered topically once daily for 16 days; details: in vivo, topical_or_ocular, 384 h
# [19] = test system: HaCaT; experiment: Inhibition of TNF-alpha/IFN-gamma-induced apoptosis in human HaCaT cells assessed as apoptotic rate at 1500 ug/ml after 24 hrs by Annexin V-FITC/propidium iodide double staining-based flow cytometry (reference value: 42.9%); format: functional; set-up: scale not given: the % may be the effect or the level left
# [20] = test system: HaCaT; experiment: Inhibition of TNFalpha/IFN-gamma-induced apoptosis in human HaCaT cells assessed as increase in mitochondrial membrane potential after 24 hrs by DiOC6 probe based flow cytometric analysis; format: functional, cell-based
# [21] = test system: HaCaT; experiment: Inhibition of TNFalpha/IFN-gamma-induced apoptosis in human HaCaT cells assessed as increase in caspase 8 expression at 500 ug/ml after 24 hrs by Western blot analysis; format: functional, cell-based
# [22] = test system: Mus musculus; experiment: Protection against DNCB-induced skin inflammation in BALB/c mouse model of atopic dermatitis assessed as number of caspase-3 positive cells at 0.1 g/ml administered topically once daily for 16 days measured post last dose by […] based light microscopic analysis (reference value: 1054 +/- 74.9); format: functional
# [23] = test system: HaCaT; experiment: Inhibition of TNFalpha/IFN-gamma-induced apoptosis in human HaCaT cells assessed as rounded nuclei with sharp edges at 500 to 1500 ug/ml after 24 hrs by Hoechst staining based fluorescence microscopic analysis; format: functional, cell-based
# [24] = test system: Mus musculus; experiment: Protection against DNCB-induced skin inflammation in BALB/c mouse model of atopic dermatitis assessed as reduction in hair follicle disappearance at 0.1 g/ml administered topically once daily for 16 days measured post last dose; format: functional, organism-based
smiles,measurement,setting,value
COc1cc2c(cc1OC)-c1cc3ccc4c(c3c[n+]1CC2)OCO4,inhibition,[1],inactive
same,Activity,[2],Toxic
COc1ccc2cc3[n+](cc2c1OC)CCc1cc2c(cc1-3)OCO2 [BERBERINE],inhibition,[1],inactive
same,Activity,[2],Toxic
COc1cc2c(cc1O)-c1cc3ccc(OC)c(OC)c3c[n+]1CC2 [COLUMBAMINE],inhibition,[1],inactive
same,Activity,[2],Toxic
c1c2c(cc3c1OCO3)-c1cc3ccc4c(c3c[n+]1CC2)OCO4 [COPTISINE],inhibition,[1],inactive
same,Activity,[2],Toxic
COc1cc2c(cc1O)CC[n+]1cc3c(OC)c(OC)ccc3cc1-2 [JATRORRHIZINE],inhibition,[1],inactive
same,Activity,[2],Toxic
COc1ccc2c(c1O)-c1c(O)c(OC)cc3c1[C@H](C2)[N+](C)(C)CC3 [MAGNOFLORINE],inhibition,[1],Dose-dependent effect
same,Activity,[3],Active
same,Activity,[4],Active
same,Activity,[5],12.66
same,Activity,[2],Non-Toxic
same,Activity,[6],Active
same,Activity,[7],Non-Toxic
same,Activity,[8],Active
same,inhibition,[9],Active
same,Activity,[10],Active
same,Activity,[11],Active
same,Activity,[12],Active
same,inhibition,[13],Active
same,inhibition,[14],Active
same,inhibition,[15],Active
same,inhibition,[16],Active
same,inhibition,[17],Active
same,Activity,[18],Non-Toxic
same,Activity,[19],22.1%
same,inhibition,[20],Dose-dependent effect
same,inhibition,[21],Active
same,Activity,[22],509.8
same,inhibition,[23],Active
same,Activity,[24],Active
COc1cc2c(cc1OC)-c1cc3ccc(OC)c(OC)c3c[n+]1CC2 [PALMITINE],inhibition,[1],inactive
same,Activity,[2],Toxic
